Three substances from ChEMBL document CHEMBL5344445, “Profiling the Linear Peptides of Venom from the Brazilian Scorpion Tityus serrulatus: Structural and Functional Characterization” (J Nat Prod, 2024) can be followed below.

A short description of data set [1]: Hemolytic activity in Wistar rat RBC at 5 to 500 uM incubated for 120 mins. It is filed as toxicity, cell-based, Erythrocyte. The conditions noted are these: Wistar, red blood cells (erythrocytes), dose 5-500 µM, read-out: Activity.
A short description of data set [2]: Induction of Wistar rat mast cell degranulation assessed as beta-D-glusosaminidase release at 5 to 500 uM incubated for 15 mins relative to control. Particulars: 0.25 h, dose 5-500 µM. The format is toxicity, cell-based.
Data set [3] can be described thus: Induction of Wistar rat mast cell lysis assessed as LDH release at 5 to 500 uM incubated for 5 mins in presence of NADH relative to control. It is filed as toxicity, cell-based. The conditions noted are these: dose 5-500 µM. Background: LDH in the medium is a marker of cell lysis.
In data set [4] the test system is Escherichia coli. As to the kind of experiment: Antibacterial activity against Escherichia coli. The format is functional, organism-based.
Data set [5] has as its system Klebsiella aerogenes. As to the kind of experiment: Antibacterial activity against Enterobacter aerogenes. It is filed as functional, organism-based.
Data set [6] deals with Staphylococcus aureus. In words: Antibacterial activity against Staphylococcus aureus. It is filed as functional, organism-based.
In data set [7] the test system is Streptococcus pneumoniae. As to the kind of experiment: Antibacterial activity against Streptococcus pneumoniae. The format is functional, organism-based.
Data set [8] is described as follows: Induction of edema formation in Swiss mouse at 2 ug, I.PL measured after 60 mins relative to control. The conditions noted are these: in vivo, other, 1 h. It is filed as toxicity.
Data set [9] in a line: Induction of edema formation in Swiss mouse at 2 ug, I.PL measured after 180 mins relative to control. The format is toxicity. Particulars: in vivo, other, 3 h.
A short description of data set [10]: Induction of edema formation in Swiss mouse at 2 ug, I.PL measured after 300 mins relative to control. The format is toxicity. The conditions noted are these: in vivo, other, 5 h.
Data set [11] in a line: Induction of nociception in Swiss mouse at 2 ug, I.PL incubated for 180 mins by von frey test relative to control. The format is toxicity. The conditions noted are these: in vivo, other, 3 h.
Data set [12] in a line: Induction of nociception in Swiss mouse at 2 ug, I.PL incubated for 60 mins by von frey test relative to control. It is filed as toxicity. Particulars: in vivo, other, 1 h.
A short description of data set [13]: Induction of nociception in Swiss mouse at 2 ug, I.PL incubated for 300 mins by von frey test relative to control. It is filed as toxicity. Particulars: in vivo, other, 5 h.
A short description of data set [14]: Effect on rearing activity in Swiss mouse assessed as increase in frequency at 2 ug, I.PL incubated for 3 to 15 mins by open field test relative to control. The conditions noted are these: in vivo, other, time 3-15 min. The format is toxicity.
A short description of data set [15]: Effect on locomotory activity in Swiss mouse assessed as decrease in frequency at 2 ug, I.PL incubated for 3 to 15 mins by open field test relative to control. It is filed as toxicity. The conditions noted are these: in vivo, other, time 3-15 min, dose 2 µg.

Calls of active or inactive are those of the source. The calls are words filed in the database; no cut-off is given here. Bounds are passed on as bounds.

Take H-DEGPKSDCKP-OH: the hemolysis at 2 h, up to 500 µM in data set [1] is no more than 40%. Also, the Activity result is reported as “Non-Toxic” in [2]; “Non-Toxic” in [3]; 71% in [8] (at 2 µg); 71% in data set [9] (at 2 µg); 71% in [10] (at 2 µg); 71% in data set [11] (at 2 µg). The Activity is 71% in data set [12] (at 2 µg), 71% in [13] (at 2 µg), 41% in data set [14] (at 2 µg) and “Non-Toxic” in data set [15]. Besides, the outcome in data set [4], in data set [5], in [6] and in [7] was inactive.

Consider H-ILPNDK-OH, for which the hemolysis at 2 h, up to 500 µM in [1] was no more than 40%. Moreover, the Activity entry in data set [2], in data set [3], in [8] (dose 2 µg), in data set [9] (dose 2 µg), in data set [10] (dose 2 µg) and in data set [11] (dose 2 µg) was “Non-Toxic” in each case. Moreover, the Activity result in data set [12] (dose 2 µg), in [13] (dose 2 µg), in data set [14] (dose 2 µg) and in [15] was “Non-Toxic” in each case. Besides, the outcome in [4], in data set [5], in data set [6] and in data set [7] was inactive.

In the case of H-IPEDIIKK-OH, the hemolysis at 2 h, up to 500 µM in [1] was no more than 40%. In addition, the Activity entry is “<= 40%” in data set [2]; “<= 40%” in data set [3]; “Non-Toxic” in data set [8] (dose 2 µg); “Non-Toxic” in data set [9] (dose 2 µg); “Non-Toxic” in data set [10] (dose 2 µg); “Non-Toxic” in data set [11] (dose 2 µg). Further, the Activity entry in data set [12] (dose 2 µg), in data set [13] (dose 2 µg), in data set [14] (dose 2 µg) and in data set [15] was “Non-Toxic” in each case. Moreover, the result in data set [4], in [5], in data set [6] and in [7] was inactive.
